≈ marks a conversion by molar mass, not a printed value.

The subject of series [1] is middle-aged rats fed a 30% fat diet. The conditions noted are these: cited from earlier work.
For series [2], the system named is human hepatoma cell line Hep G2. Particulars: cited from earlier work.
For series [3] the following is noted: chronic administration; resting and exercising conditions; cited from earlier work.
For series [4] the following is noted: conditions that elevate de novo lipogenesis; cited from earlier work.
The conditions of series [5]: in vivo; cited from earlier work.
Series [6] in a line: Alcohol solubility (1% wt in 50% v/v ethanol). Particulars: tested at 1% weight in 50% (v/v) ethanol solution. It counts as physicochemical.
For series [7] the following is noted: kinetic study. An excerpt:
This structure is like the soluble double metal HCA salts disclosed by Balasubramanyam et al., (U.S. Pat. No. 6,160,172, issued Dec. 12, 2000; U.S. Pat. No. 6,395,296, issued May 28, 2002).

`O=C([O-])CC(O)(C(=O)[O-])C(O)C(=O)[O-].[K+].[K+].[K+]` (centres unmarked) [potassium HCA]: in series [1], the “fat as a percentage of body weight” value was “reducing” and the “protein as a percentage of body weight” value is “increased”.

Regarding `O=C(O)CC(O)(C(=O)O)C(O)C(=O)O` (single isomer, unassigned; (-)) [HCA, (−)-hydroxycitric acid], the “incorporation of [1,5-14C]citrate into fatty acids and cholesterol” value in series [2] (2.5 h and 18 h incubations, 0.5 mM or higher) is reported as “strongly inhibited”. Also, the “Cholesterol biosynthesis, of the control value” in series [2] (incorporation of tritium from tritiated water) was 27%. Moreover, in series [3], the respiratory exchange ratio entry is reported as “significantly lower”. Besides, in series [4], the energy expenditure result is on record as “increased” and the fat synthesis result is reported as “reduced”. Besides, in series [5], the appetite and satiety result was “promote appetite suppression and satiety”.

A word on the solubility: it is how much of the substance goes into solution per volume. A low value points to little dissolved substance. On to `O=C(O)CC(O)(C(=O)O)C(O)C(=O)O` (centres unmarked) [K/Mg-HCA monomer], for which the “Alcohol Solubility (50% v/v alcohol; 1% wt test)” value in series [6] was 40%. Besides, the “absorption compared to the dimer” value in series [7] is “less-absorbed”. Also, the solubility in the series “physchem” came to 250 mg/mL (≈ 1200 mM).

The values above are taken from patent US8367864B2, “Dimeric double metal salts of (−)-hydroxycitric acid, methods of making and uses of same” (Glykon Technologies Group, LLC, priority 2006, dated 2013).
